In PubChem BioAssay (NCI):
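Assay format: 96-well plates, 48-hour exposure. TGI denotes the concentration required for complete inhibition of growth.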

Assays:
Assay in all cases: NCI tumour cell line growth inhibition, 48 h
RXF 393 renal = tested on: RXF 393 renal
OVCAR-5 ovarian = tested on: OVCAR-5 ovarian
KM12 colon = tested on: KM12 colon
HOP-92 NSCLC = tested on: HOP-92 NSCLC
SK-MEL-28 melanoma = tested on: SK-MEL-28 melanoma
MOLT-4 leukemia = tested on: MOLT-4 leukemia
786-0 renal = tested on: 786-0 renal
MDA-MB-435 = tested on: MDA-MB-435
BT-549 breast = tested on: BT-549 breast
PC-3 prostate = tested on: PC-3 prostate
DU-145 prostate = tested on: DU-145 prostate
MCF7 breast = tested on: MCF7 breast
HS 578T breast = tested on: HS 578T breast

Row | SMILES | TGI (RXF 393 renal) [µM] | TGI (OVCAR-5 ovarian) [µM] | TGI (KM12 colon) [µM] | TGI (HOP-92 NSCLC) [µM] | TGI (SK-MEL-28 melanoma) [µM] | TGI (MOLT-4 leukemia) [µM] | TGI (786-0 renal) [µM] | TGI (MDA-MB-435) [µM] | TGI (BT-549 breast) [µM] | TGI (PC-3 prostate) [µM] | TGI (DU-145 prostate) [µM] | TGI (MCF7 breast) [µM] | TGI (HS 578T breast) [µM]
1 | O=C(/C=C(\O)C(=O)O)/C=C(\O)c1ccccc1Cl | > 100 | > 100 | > 100 | > 100 | > 100 | > 100 | > 100 |  |  |  |  |  | 
2 | CC[N+](CC)(CC)Cc1cn(S(=O)(=O)c2ccccc2)c2ccccc12 |  | > 100 | > 100 | > 100 | > 100 | > 100 | > 100 |  |  |  |  |  | 
3 | CC/C(=C/OC)P1(=O)OC(C)(C)CN1C(C)(C)C (stereo not drawn) |  | > 100 | > 100 |  |  |  | > 100 | > 100 | > 100 | > 100 | > 100 | > 100 | 
4 | CC(C)CC(NC(=O)OCc1ccccc1)C(=O)NCCCCC(N)C(=O)NC(CCCCNC(=O)C(CC(C)C)NC(=O)OCc1ccccc1)C(=O)NC(CCCCNC(=O)C(CC(C)C)NC(=O)OCc1ccccc1)C(=O)NC(CCCCNC(=O)C(CC(C)C)NC(=O)OCc1ccccc1)C(=O)NC(CCCCNC(=O)C(CC(C)C)NC(=O)OCc1ccccc1)C(=O)NC(CCCCNC(=O)C(CC(C)C)NC(=O)OCc1ccccc1)C(=O)O (stereo not drawn) |  | > 100 |  |  |  | > 100 | > 100 | > 100 | > 100 | > 100 | > 100 | > 100 | 
5 | CC1C(c2ccccc2)=CCON1c1ccccc1 (stereo not drawn) | > 100 | > 100 | > 100 |  | > 100 | > 100 | > 100 |  |  |  |  |  | 
6 | Cc1c(C(=O)Nc2ccc(Cl)c(C(F)(F)F)c2)oc2cc(O)ccc2/c1=N\NC(N)=S | > 100 | > 100 | > 100 |  | > 100 | > 100 | > 100 |  |  |  |  |  | 
7 | CCCN(CCC)C(=S)N/N=C/c1cccc(C)n1 | 0.637 | 47.2 | 12.4 | > 100 | 91.3 | 0.588 | 1.37 | 28.8 |  | 62.9 | > 100 | 0.67 | > 100
8 | CCOP(=O)(CCC(O)CNc1nc(N)nc(Cl)c1N=Nc1ccc(Cl)cc1)OCC (stereo not drawn) | 21.1 | 34.1 | 37.5 | 3.8 | 25.9 | 37.1 | 48.4 | 29.9 |  | 29.7 | > 100 | 26.3 | 38.2
9 | COC(=O)C1=C(C(=O)OC)C(C(=O)c2ccccc2)N2N=C(c3ccc(Cl)cc3)C=CC12 (stereo not drawn) | > 100 | > 100 | > 100 | > 100 | > 100 | > 100 | > 100 | > 100 | 8.55 | > 100 | > 100 | > 100 | 
10 | O=C1OC(c2ccccc2)(c2ccccc2)CC1CN1CCOCC1 (stereo not drawn) |  | 67.5 | 30.8 |  | 32.9 | 65.4 | 30.4 |  |  |  |  |  | 
11 | COC(=O)CC1CN(C(=O)OCc2ccccc2)C(C)(C)O1 (stereo not drawn) | > 100 | > 100 | > 100 | > 100 | > 100 | > 100 | > 100 | > 100 | 66.9 | > 100 | > 100 | > 100 | 
12 | O=S(=O)([N-]c1nc2ccccc2nc1-[n+]1ccccc1)c1ccccc1 | > 100 | > 100 | > 100 | > 100 |  | 95.4 | > 100 |  | > 100 | > 100 |  | > 100 | > 100
13 | CN=C1Nc2ccccc2C(=S)N2CSC[C@@H]12 | > 100 | > 100 | > 100 | > 100 | > 100 | > 100 | > 100 | > 100 |  | > 100 | > 100 | > 100 | 
14 | CCOC(=O)Cc1nc2nn(Cc3ccccc3)cc2c(=O)[nH]1 | > 100 | > 100 | > 100 |  | > 100 | > 100 | > 100 | > 100 | > 100 |  | > 100 | > 100 | 
15 | CC(=O)CCC(=O)CC(O)(C(F)(F)F)C(F)(F)F | 34.5 | 29.9 | 31.1 | 26.7 | 39.6 | 36.6 | 30.2 | 34.6 |  |  | 37.8 | 37.1 | 38.5
16 | CSC1=N/C(=C\c2ccc(Cl)cc2)C(=O)N1CN1CCOCC1 |  | > 100 | > 100 | 30.6 | > 100 | > 100 | > 100 | > 100 |  | > 100 | > 100 | > 100 | > 100
17 | Cc1cc2c(cc1Cl)SC(NNC(=O)c1ccncc1)=NS2(=O)=O | > 10 | > 10 | > 10 |  | > 10 | > 10 | > 10 | > 10 | > 10 | > 10 | > 10 |  | > 10
18 | Cc1nn(-c2ccccc2)c2nc3c(c(C)nn3-c3ccccc3)c(-c3ccccc3Br)c12 | > 100 | > 100 | > 100 | > 100 | > 100 | > 100 | > 100 | > 100 | > 100 | > 100 | > 100 | > 100 | 
19 | BrC12C3C4C5C(C(C43)C13OCCO3)C52 (stereo not drawn) | > 100 | > 100 | > 100 | > 100 | > 100 | > 100 | > 100 |  |  |  |  |  | 
20 | CCOC(=O)C1=C(C)C2C3C(=O)NC(=O)C3C1(C)C1C(=O)NC(=O)C21 (stereo not drawn) | > 100 |  | > 100 | > 100 | > 100 | > 100 | > 100 |  |  |  |  |  | 
